The source made the active and inactive calls. The rule behind the calls is not given here.
Assays:
MCF7 [1] = experiment: Cell cycle arrest in human MCF7 cells assessed as accumulation at G0/G1 phase at 11.33 uM after 24 hrs by propidium iodide staining based flow cytometry (reference value: 50.3 %); assay type: functional
MCF7 [2] = experiment: Induction of ROS accumulation in human MCF7 cells at 11.33 uM after 24 hrs by CM-H2-DCFDA probe based flow cytometry (reference value: 12.6 %); assay type: functional
MCF7 [3] = experiment: Induction of mitochondrial membrane depolarization in human MCF7 cells assessed as ratio of red to green fluorescence at 11.33 uM after 24 hrs by JC-1 staining based FACS assay (reference value: 9.1); assay type: functional
MCF7 [4] = experiment: Induction of apoptosis in human MCF7 cells assessed as necrotic cells at 11.33 uM after 24 hrs by Annexin-V-FITC/propidium iodide staining based flow cytometry (reference value: 1.7 %); assay type: functional
MCF7 [5] = experiment: Induction of apoptosis in human MCF7 cells assessed as cell detachment at 11.33 uM after 24 hrs by inverted phase contrast microscopy; assay type: functional, cell-based
MCF7 [6] = experiment: Induction of mitochondrial membrane depolarization in human MCF7 cells at 11.33 uM after 24 hrs by JC-1 staining based FACS assay (reference value: 9.9 %); assay type: functional
MCF7 [7] = experiment: Induction of apoptosis in human MCF7 cells assessed as early apoptotic cells at 11.33 uM after 24 hrs by Annexin-V-FITC/propidium iodide staining based flow cytometry (reference value: 2.3 %); assay type: functional
MCF7 [8] = experiment: Induction of mitochondrial membrane depolarization in human MCF7 cells at 11.33 uM after 48 hrs by JC-1 staining based FACS assay (reference value: 9.9 %); assay type: functional
MCF7 [9] = experiment: Induction of apoptosis in human MCF7 cells assessed as late apoptotic cells at 11.33 uM after 24 hrs by Annexin-V-FITC/propidium iodide staining based flow cytometry (reference value: 0.1 %); assay type: functional
MCF7 [10] = experiment: Induction of apoptosis in human MCF7 cells assessed as rounded cells at 11.33 uM after 24 hrs by inverted phase contrast microscopy; assay type: functional, cell-based
MCF7 [11] = experiment: Induction of ROS accumulation in human MCF7 cells at 11.33 uM after 12 hrs by CM-H2-DCFDA probe based flow cytometry (reference value: 5.1 %); assay type: functional
MCF7 [12] = experiment: Cell cycle arrest in human MCF7 cells assessed as accumulation at S phase at 11.33 uM after 48 hrs by propidium iodide staining based flow cytometry (reference value: 20.6 %); assay type: functional
MCF7 [13] = experiment: Induction of apoptosis in human MCF7 cells assessed as late apoptotic cells at 11.33 uM after 48 hrs by Annexin-V-FITC/propidium iodide staining based flow cytometry relative to control; assay type: functional
MCF7 [14] = experiment: Induction of apoptosis in human MCF7 cells assessed as early apoptotic cells at 11.33 uM after 48 hrs by Annexin-V-FITC/propidium iodide staining based flow cytometry (reference value: 0.4 %); assay type: functional
MCF7 [15] = experiment: Induction of apoptosis in human MCF7 cells assessed as viable cells at 11.33 uM after 48 hrs by Annexin-V-FITC/propidium iodide staining based flow cytometry (reference value: 99.2 %); assay type: functional; conditions: MCF7, 48 h, read-out: Activity
MCF7 [16] = experiment: Cell cycle arrest in human MCF7 cells assessed as accumulation at G2/M phase at 11.33 uM after 24 hrs by propidium iodide staining based flow cytometry (reference value: 25 %); assay type: functional
MCF7 [17] = experiment: Induction of ROS accumulation in human MCF7 cells at 8.27 uM after 24 hrs by CM-H2-DCFDA probe based flow cytometry (reference value: 12.6 %); assay type: functional
MCF7 [18] = experiment: Induction of apoptosis in human MCF7 cells assessed as late apoptotic cells at 8.27 uM after 24 hrs by Annexin-V-FITC/propidium iodide staining based flow cytometry (reference value: 0.1 %); assay type: functional
MCF7 [19] = experiment: Induction of mitochondrial membrane depolarization in human MCF7 cells assessed as ratio of red to green fluorescence at 8.27 uM after 24 hrs by JC-1 staining based FACS assay (reference value: 9.1); assay type: functional
MCF7 [20] = experiment: Induction of apoptosis in human MCF7 cells assessed as necrotic cells at 8.27 uM after 24 hrs by Annexin-V-FITC/propidium iodide staining based flow cytometry (reference value: 1.7 %); assay type: functional
MCF7 [21] = experiment: Induction of apoptosis in human MCF7 cells assessed as caspase 7 cleavage at 8.27 uM after 48 hrs by Western blot analysis; assay type: functional, cell-based
MCF7 [22] = experiment: Cell cycle arrest in human MCF7 cells assessed as accumulation at G2/M phase at 8.27 uM after 24 hrs by propidium iodide staining based flow cytometry (reference value: 25 %); assay type: functional
MCF7 [23] = experiment: Induction of apoptosis in human MCF7 cells assessed as viable cells at 8.27 uM after 24 hrs by Annexin-V-FITC/propidium iodide staining based flow cytometry (reference value: 95.9 %); assay type: functional; conditions: MCF7, 24 h, read-out: Activity
MCF7 [24] = experiment: Cell cycle arrest in human MCF7 cells assessed as accumulation at G2/M phase at 8.27 uM after 48 hrs by propidium iodide staining based flow cytometry (reference value: 19.8 %); assay type: functional
MCF7 [25] = experiment: Induction of apoptosis in human MCF7 cells assessed as early apoptotic cells at 8.27 uM after 24 hrs by Annexin-V-FITC/propidium iodide staining based flow cytometry (reference value: 2.3 %); assay type: functional
MCF7 [26] = experiment: Induction of mitochondrial membrane depolarization in human MCF7 cells at 8.27 uM after 24 hrs by JC-1 staining based FACS assay (reference value: 9.9 %); assay type: functional
MCF7 [27] = experiment: Cell cycle arrest in human MCF7 cells assessed as accumulation at G0/G1 phase at 8.27 uM after 24 hrs by propidium iodide staining based flow cytometry (reference value: 50.3 %); assay type: functional
MCF7 [28] = experiment: Induction of mitochondrial membrane depolarization in human MCF7 cells assessed as ratio of red to green fluorescence at 8.27 uM after 48 hrs by JC-1 staining based FACS assay (reference value: 9.1); assay type: functional
MCF7 [29] = experiment: Cell cycle arrest in human MCF7 cells assessed as accumulation at G0/G1 phase at 8.27 uM after 48 hrs by propidium iodide staining based flow cytometry (reference value: 59.7 %); assay type: functional
MCF7 [30] = experiment: Induction of apoptosis in human MCF7 cells assessed as rounded cells at 8.27 uM after 24 hrs by inverted phase contrast microscopy; assay type: functional, cell-based
MCF7 [31] = experiment: Induction of apoptosis in human MCF7 cells assessed as cell detachment at 8.27 uM after 24 hrs by inverted phase contrast microscopy; assay type: functional, cell-based
MCF7 [32] = experiment: Cell cycle arrest in human MCF7 cells assessed as accumulation at S phase at 8.27 uM after 24 hrs by propidium iodide staining based flow cytometry (reference value: 24.5 %); assay type: functional
MCF7 [33] = experiment: Induction of apoptosis in human MCF7 cells assessed as viable cells at 8.27 uM after 48 hrs by Annexin-V-FITC/propidium iodide staining based flow cytometry (reference value: 99.2 %); assay type: functional; conditions: MCF7, 48 h, read-out: Activity
MCF7 [34] = experiment: Induction of apoptosis in human MCF7 cells assessed as late apoptotic cells at 8.27 uM after 48 hrs by Annexin-V-FITC/propidium iodide staining based flow cytometry relative to control; assay type: functional
MCF7 [35] = experiment: Induction of apoptosis in human MCF7 cells assessed as caspase 9 cleavage at 8.27 uM after 48 hrs by Western blot analysis; assay type: functional, cell-based

CC1(C)CC[C@]2(C(=O)O)CC[C@]3(C)C(=CC[C@@H]4[C@@]5(C)CC[C@H](O[C@@H]6O[C@H](C(=O)O)[C@@H](O)[C@H](O)[C@H]6O)C(C)(C)[C@@H]5CC[C@]43C)[C@@H]2C1
Activity (MCF7 [1]): 45.9% | Activity (MCF7 [2]): 99.9% | Ratio (MCF7 [3]): 6.14 | Activity (MCF7 [4]): 0.7% | Activity (MCF7 [5]): Active | Activity (MCF7 [6]): 14% | Activity (MCF7 [7]): 11.6% | Activity (MCF7 [8]): 54.9% | Activity (MCF7 [9]): 0.2% | Activity (MCF7 [10]): Active | Activity (MCF7 [11]): 50.4% | Activity (MCF7 [12]): 47.1% | Activity (MCF7 [13]): 1.3% | Activity (MCF7 [14]): 46% | viability at 11.33 µM (MCF7 [15]): 52% | Activity (MCF7 [16]): 24.3%

C[C@@H]1CC[C@@]2(OC1)O[C@H]1C[C@H]3[C@@H]4CC[C@H]5C[C@@H](O[C@@H]6O[C@H](CO)[C@H](O[C@@H]7O[C@H](CO)[C@@H](O)[C@H](O[C@@H]8OC[C@@H](O)[C@H](O)[C@H]8O)[C@H]7O[C@@H]7O[C@H](CO)[C@@H](O)[C@H](O)[C@H]7O)[C@H](O)[C@H]6O)CC[C@]5(C)[C@H]4CC[C@]3(C)[C@H]1[C@@H]2C [DEGALACTOTIGONIN]
Activity (MCF7 [17]): 99.9% | Activity (MCF7 [18]): 0.5% | Ratio (MCF7 [19]): 9 | Activity (MCF7 [20]): 3% | Activity (MCF7 [21]): Active | Activity (MCF7 [22]): 28.5% | viability at 8.27 µM (MCF7 [23]): 91% | Activity (MCF7 [24]): 22.5% | Activity (MCF7 [25]): 5.5% | Activity (MCF7 [26]): 9% | Activity (MCF7 [27]): 43.8% | Ratio (MCF7 [28]): 0.437 | Activity (MCF7 [29]): 36.3% | Activity (MCF7 [30]): Active | Activity (MCF7 [31]): Active | Activity (MCF7 [32]): 27.5% | viability at 8.27 µM (MCF7 [33]): 0.7% | Activity (MCF7 [34]): 0.6% | Activity (MCF7 [35]): Active

Source: ChEMBL document CHEMBL3817761, “Chenopodium album metabolites act as dual topoisomerase inhibitors and induce apoptosis in the MCF7 cell line” (Medchemcomm, 2016)
